Consider 5 compounds from ChEMBL document CHEMBL1201862, “PubChem BioAssay data set” (2004).

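Compound exposure: 48 hours, 5 concentrations, 96-well plates. GI50 is the concentration that inhibits growth by half.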 Activity calls are given as the source filed them. Rule as the data show it: active = GI50 up to about 1.1 µM and inactive = higher.

Some test systems named below: KM12; HCC 2998; NCI-H23; SK-OV-3; SR; NCI/ADR-RES; MDA-MB-435; MDA-MB-231; NCI-H522; NCI-H226; RXF 393; UACC-257; SK-MEL-2; UO-31; MCF7; MOLT-4; A549; Malme-3M; SNB-75.
Common to all, as to test: inhibition of tumour cell growth, NCI panel, 48 h

Take `CC1=NN(c2cccc(Cl)c2)C2(C1=Cc1ccc(O)cc1)C(Cl)C(=O)N2c1nc2ccccc2s1` (stereo not drawn): the GI50 is 22.4 µM (inactive) in the assay on KM12; 18.8 µM (inactive) with HCC 2998; 16 µM (inactive) in the assay with NCI-H23; 22.8 µM (inactive) in the assay on SK-OV-3; 19.9 µM (inactive) in the assay with SR; 21.4 µM (inactive) in the assay with NCI/ADR-RES. The GI50 in the assay with MDA-MB-435 is 25.1 µM (inactive); in the assay with MDA-MB-231, 24.6 µM (inactive); in the assay on NCI-H522 it was 22.2 µM (inactive); in the assay on NCI-H226 it was 27.2 µM (inactive); in the assay with RXF 393, 20.5 µM (inactive); in the assay with UACC-257 it was 25.5 µM (inactive). The GI50 is 20.4 µM (inactive) with SK-MEL-2, 12.9 µM (inactive) with UO-31, 17.8 µM (inactive) in the assay on MCF7 and 14.2 µM (inactive) with MOLT-4.
As to `COC(=O)NC1(NC(=O)OC)NC(=O)c2cc(OC)c(OC)cc2N1`, the GI50 with KM12 was 35.8 µM (inactive); in the assay with NCI-H23, 50.2 µM (inactive); with SR it was 25.4 µM (inactive); with NCI/ADR-RES, 31.5 µM (inactive); in the assay on MDA-MB-435, 2.97 µM (inactive); in the assay on NCI-H522 it was 2.54 µM (inactive). Besides, the GI50 with A549 is 61.8 µM (inactive); in the assay on UACC-257, 45 µM (inactive); with SK-MEL-2, 19 µM (inactive); with UO-31 it was 40 µM (inactive); in the assay with MCF7 it was 16.1 µM (inactive).
Consider `COc1cc2oc(=O)cc(C)c2c(OC)c1O`, for which the GI50 with Malme-3M, in the assay with KM12, in the assay with NCI-H23, in the assay on SNB-75, with SK-OV-3 and in the assay with SR was > 100 µM (inactive) throughout. The GI50 in the assay on NCI/ADR-RES, in the assay on MDA-MB-435, in the assay on MDA-MB-231, in the assay with A549, in the assay with NCI-H226 and in the assay with UACC-257 was > 100 µM (inactive) in each case. In addition, the GI50 in the assay with SK-MEL-2, in the assay with UO-31, in the assay with MCF7 and with MOLT-4 was > 100 µM (inactive) throughout.
`O=C1C(Cl)C(c2cccc([N+](=O)[O-])c2)N1n1cnc2ccccc2c1=O` (stereo not drawn): the GI50 with Malme-3M was > 100 µM (inactive); in the assay on KM12, > 100 µM (inactive); with HCC 2998, > 100 µM (inactive); in the assay with NCI-H23, > 100 µM (inactive); in the assay with SNB-75 it was 65.8 µM (inactive); in the assay with SK-OV-3, > 100 µM (inactive). In addition, the GI50 is 19.1 µM (inactive) in the assay with SR; 46.3 µM (inactive) with NCI-H522; > 100 µM (inactive) in the assay with A549; > 100 µM (inactive) in the assay on NCI-H226; > 100 µM (inactive) in the assay with RXF 393; 55.2 µM (inactive) in the assay on UACC-257. In addition, the GI50 in the assay on SK-MEL-2 is > 100 µM (inactive); in the assay with UO-31, 14.7 µM (inactive); with MOLT-4, 35.1 µM (inactive).
In the case of `[O-]c1c2c(nn1-c1ccccc1)c1ccccc1c[n+]2Cc1ccccc1`, the GI50 in the assay with Malme-3M is > 100 µM (inactive); with KM12, > 100 µM (inactive); in the assay with HCC 2998, > 100 µM (inactive); in the assay on NCI-H23, > 100 µM (inactive); in the assay on SNB-75 it was 50.4 µM (inactive); in the assay on SK-OV-3, > 100 µM (inactive). Also, the GI50 is > 100 µM (inactive) in the assay with SR; 73.6 µM (inactive) in the assay with NCI-H522; > 100 µM (inactive) with A549; > 100 µM (inactive) in the assay with NCI-H226; 0.13 µM (active) with RXF 393; > 100 µM (inactive) in the assay on UACC-257. In addition, the GI50 in the assay on SK-MEL-2, in the assay on UO-31 and in the assay on MOLT-4 was > 100 µM (inactive) in each case.
